Results taken from ChEMBL document CHEMBL1201862, “PubChem BioAssay data set” (2004).
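Protocol summary: plate cells (96-well), add compound at 5 concentrations, incubate 48 h, interpolate endpoints linearly. GI50 marks 50% less growth.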 Activity calls are given as the source filed them. No stated cut-off is given here; in the data, active = GI50 up to about 1.1 µM and inactive = higher.

Columns and labels:
Experiment in all cases: DTP human tumour cell line panel, 48 h
[1] = test system: COLO 205
[2] = test system: DLD-1
[3] = test system: EKVX
[4] = test system: HL-60
[5] = test system: HOP-62
[6] = test system: KM-20L2
[7] = test system: M19-MEL
[8] = test system: NCI-H226
[9] = test system: SR
[10] = test system: A498
[11] = test system: BT-549
[12] = test system: DU-145
[13] = test system: Hs-578T
[14] = test system: MDA-MB-231
[15] = test system: MDA-MB-435
[16] = test system: MDA-N
[17] = test system: NCI-H522
[18] = test system: PC-3
[19] = test system: T47D
[20] = test system: 786-0

Row | Compound | GI50 [1] | GI50 [2] | GI50 [3] | GI50 [4] | GI50 [5] | GI50 [6] | GI50 [7] | GI50 [8] | GI50 [9] | GI50 [10] | GI50 [11] | GI50 [12] | GI50 [13] | GI50 [14] | GI50 [15] | GI50 [16] | GI50 [17] | GI50 [18] | GI50 [19] | GI50 [20]
1 | COC(=O)C1=C(C)N2CCOC2(C)C(C(=O)OC)C1c1ccc[nH]1 (stereo not given) | > 100 µM (inactive) | > 100 µM (inactive) | > 100 µM (inactive) | > 100 µM (inactive) | > 100 µM (inactive) | > 100 µM (inactive) | > 100 µM (inactive) | > 100 µM (inactive) | > 100 µM (inactive) |  |  |  |  |  |  |  |  |  |  | 
2 | COc1cccc2c1C(=O)c1c(O)c3c(c(O)c1C2=O)C[C@@](O)(C(=O)CO)C[C@@H]3OC1CC(N2CCOCC2)C(O)C(C)O1 (stereo not given in full) | 0.00325 µM (active) | 0.00277 µM (active) | 0.0159 µM (active) | 0.0025 µM (active) | 0.0199 µM (active) | 0.0025 µM (active) | 0.00552 µM (active) | 0.00562 µM (active) | 0.00466 µM (active) | 0.00315 µM (active) | 0.0525 µM (active) | 0.0497 µM (active) | 0.0249 µM (active) | 0.0551 µM (active) | 0.0478 µM (active) | 0.0328 µM (active) | 0.0025 µM (active) | 0.033 µM (active) | 0.0574 µM (active) | 
3 | O=C1OC(c2ccccc2)=N/C1=C\c1ccc(Oc2ccc(Cl)c(Cl)c2)cc1 | > 100 µM (inactive) | 48.9 µM (inactive) | 45.1 µM (inactive) | 27.9 µM (inactive) | 88.3 µM (inactive) | 56.6 µM (inactive) | 36.9 µM (inactive) |  | 21.7 µM (inactive) | > 100 µM (inactive) |  |  |  |  |  |  | 30.1 µM (inactive) |  |  | 29.9 µM (inactive)
4 | O=C(OCc1ccccc1)C(Cc1ccccc1)N(Cc1ccccc1)Cc1ccccc1 (stereo not given) | > 100 µM (inactive) | > 100 µM (inactive) | > 100 µM (inactive) | 36.7 µM (inactive) | > 100 µM (inactive) | > 100 µM (inactive) | 76.7 µM (inactive) |  | 9.51 µM (inactive) | > 100 µM (inactive) |  |  |  |  |  |  | 25.7 µM (inactive) |  |  | 
5 | Cc1cc(C)cc(Sc2c([N+](=O)[O-])ncn2C)c1 | 12.4 µM (inactive) | 11.9 µM (inactive) | 27.7 µM (inactive) |  | > 100 µM (inactive) | 35.2 µM (inactive) | 22.6 µM (inactive) | 6.03 µM (inactive) | 10.5 µM (inactive) | 20.9 µM (inactive) |  |  |  |  |  |  | 6.64 µM (inactive) |  |  | 24 µM (inactive)
6 | O=P1(c2ccccc2)Nc2ccccc2SSc2ccccc2N1 | 20 µM (inactive) | 17 µM (inactive) | 15.2 µM (inactive) | 13.8 µM (inactive) | > 10 µM (inactive) | 17.9 µM (inactive) | 18.7 µM (inactive) | 17 µM (inactive) |  | 20.4 µM (inactive) |  |  |  |  |  |  | 15.1 µM (inactive) |  |  | 
